{"source": "patent US20200338156A1", "about": "“C[…] (CYCLO-HIS PRO) FOR PREVENTING, IMPROVING OR TREATING OF BONE LOSS RELATED DISEASE” (NovMetaPharma Co., Ltd., priority 2017, published 2020)", "key": {"MC3T3-E1 cells": {"system": "MC3T3-E1 cells", "assay": "Osteogenic differentiation of MC3T3-E1 osteoblasts, alkaline phosphatase (ALP) activity", "type": "cell-based", "description": "MC3T3-E1 cells were incubated in MEMα, an ascorbic acid-free medium containing 10% FBS and 1% penicillin/streptomycin, in a 5% CO2 incubator at 37° C. To induce osteogenic differentiation, 10 mM β-glycerophosphate and […] of ascorbic acid was further added to the basal medium composition.\n500 μl of 1×10^5 MC3T3-E1 cells were seeded into a 24-well plate and cultured for 24 hours until they reached 100% confluency. […] At this time, in the undifferentiated group, which is a negative control for differentiation, a basal medium was used instead of the differentiation medium. In the positive control treated with hPTH1-34, the medium was replaced with a differentiation medium 6 hours after the treatment. While the medium was replaced every 48 hours, each concentration of CHP and hPTH1-34 was treated for a total of 14 days.\nOn day 14 of differentiation, the medium was removed, followed by washing once with PBS and fixing in 4% paraformaldehyde (PFA) at room temperature for 5 minutes. 500 μl of a 1-STEP™ NBCT/BCIP solution was added to allow a reaction to occur at room temperature for 1 hour. The reaction product was washed with distilled water, and then dried at room temperature, and the degree of coloring of the cells was observed using a microscope. Subsequently, DMSO was added to each well, followed by shaking, and then absorbance at 525 nm was measured."}, "[1]": {"system": "ovariectomized animal model", "assay": "Osteoporosis alleviation effect in ovariectomized animal model, micro CT of femur", "type": "in vivo, SD female mice", "description": "To determine the effect of alleviating osteoporosis in an ovariectomized animal model according to administration of CHP, a zinc salt, or a mixture thereof, 20-week-old SD female mice (SLC/Central Experimental Animal Co. Ltd., Seoul, Korea) were purchased and raised under certain conditions (temperature: 22±2° C., relative humidity: 55±10%, light/dark cycle: 12 hours). 7 mice/group were allowed to freely drink water and eat food in a cage, subjected to an adaptation period of 1 week before the experiment, and used in the experiment.\nAfter 6 weeks of the administration of CHP, a zinc salt, or a mixture thereof, the effect of alleviating osteoporosis in an ovariectomized animal model was analyzed using Micro CT. The bone mineral density of ovariectomized animals was measured by bone CT scanning of the 3 mm range at the front side of a 2 mm femoral growth plate using micro-CT (QuantumFX, Perkin Elmer, Massachusetts, USA). In addition, a bone volume fraction (BV/TV, %) was measured. The measurement results of the bone mineral density of the femur are illustrated in FIG. 1, and the bone volume fraction is illustrated in FIG. 2."}}, "note": "Entries after “also recorded” stand apart in the source; their conditions may differ.", "data": [{"smiles": "O=C1N[C@@H](Cc2cnc[nH]2)C(=O)N2CCC[C@@H]12", "note": "[CHP, cyclo-hispro]", "values": [{"measurement": "osteogenic differentiation, degree of coloring (ALP staining, FIG. 3)", "setting": "MC3T3-E1 cells; MC3T3-E1, 0.5, 1 or 2 mM CHP, day 14 of differentiation, compared to negative control", "value": "remarkably increased degree of coloring compared to the negative control; also recorded: as the concentration of CHP treated was increased, osteogenic differentiation and bone modeling were promoted"}, {"measurement": "ALP activity (absorbance at 525 nm, FIG. 4)", "setting": "MC3T3-E1 cells; MC3T3-E1, CHP 2 mM, day 14, compared to positive control hPTH1-34 10 nM", "value": "level similar to that of the positive control; also recorded: same or similar to that of a positive control"}, {"measurement": "bone mineral density of a femur", "setting": "[1]; CHP alone administered to ovariectomized animal model, dose not stated (FIG. 1)", "value": "significantly increased"}, {"measurement": "bone volume fraction of a femur", "setting": "[1]; CHP alone administered to ovariectomized animal model, dose not stated (FIG. 2)", "value": "significantly increased"}, {"measurement": "bone volume fraction (BV/TV)", "setting": "[1]; group administered 1 mg/L of CHP in drinking water, 6 weeks, micro-CT", "value": "restored to a level similar to that of the positive control (risedronate)"}, {"measurement": "bone mineral density of the femur", "setting": "[1]; group administered 1 mg/L of CHP in drinking water, 6 weeks, micro-CT, compared to the ovariectomized group", "value": "significant increase"}, {"measurement": "effect on bone mineral density and bone volume fraction versus zinc salt-administered group and combined (zinc salt + CHP) administration group", "setting": "[1]; ovariectomized animal model, CHP alone", "value": "significantly stronger"}]}]}
